The values that follow come from PMC12668308, “A Novel Antimalarial Agent that Inhibits Protein Synthesis in Plasmodium falciparum” (Angewandte Chemie (International Ed. in English), 2025).

For one series, the system named is HepG2. In words: Cytotoxicity assay (MTT). It counts as cell-based, human. How it is done:
(§1) HepG2 (2x10^4 cells per well) were seeded in 96-well flat-bottom culture plates in 100 µL of culture medium (DMEM containing 10% fetal calve serum and 1% penicillin-streptomycin). After 24 hours, the medium was replaced by fresh medium containing test compounds in a final DMSO concentration of 1%. […] Epirubicin and doxorubicin were used as positive controls in serial dilutions starting from 10 µM, and rifampicin was used as a negative control (at 100 µM). Cell viability was determined 48 h after treatment with compounds by adding 0.1 volumes of 3-(4,5-dimethylthiazol-2-yl)-2,5-diphenyltetrazolium bromide (MTT) solution (5 mg/mL sterile PBS) (Sigma, St. Louis, MO) to the wells. After incubating the cells for 30 min at 37 °C (atmosphere containing 5% CO2), medium was removed and MTT crystals were dissolved in 75 µL of a solution containing 10% SDS and 0.5% acetic acid in DMSO. The optical density (OD) of the samples was measured photometrically at 570 nm in a PHERAstar Omega plate reader (BMG labtech, Ortenberg, Germany). Percent viability was calculated by normalizing sample ODs to those of the DMSO controls. Each compound was tested in at least two independent experiments and CC50 values were determined using the nonlinear regression function of GraphPad Prism 10 (GraphPad Software, San Diego, CA, USA).

A further series can be described thus: Cytotoxicity assay (MTT). It counts as cell-based, human. The settings on record: human, HepG2 cells; HepG2, 48 h, MTT; mean ± s.d. The method, then: as §1
For another series, the system named is 3D7^Cas9 pfmdr1 G182S. In kind it is cell-based, Plasmodium falciparum. The settings on record: 3D7^Cas9 pfmdr1 G182S vs 3D7^WT. How it is done:
^[a] 72-h [^3H] hypoxanthhine incorporation assay; Data is expressed as mean±s.d.. The assay was performed in three independent biological experiments, each in biological duplicates.
(§2) P. falciparum asexual blood stage parasites were cultured in human red blood cells (RBC, Blutspende SRK, Zurich) at a hematocrit of 5% in RPMI 1640 medium. The RPMI 1640 medium (ThermoFisher Scientific #51800−043) was supplemented with the following: 24 mM NaHCO3 (pH 7.3, Sigma-Aldrich #31437−500G-R), 25 mM Hepes (Sigma-Aldrich #H4034−500G), 0.36 mM hypoxanthine (Sigma-Aldrich # H9377−25G), 100 µg mL^-1 neomycin (Sigma-Aldrich #N6386−100G) and 0.5% Albumax II (Thermo Fisher #11021−045). Additionally, 2 mM choline chloride (279 mg/L, Sigma-Aldrich #C7527−100G) was added to the culture to block the induction of sexual commitment as described. ^[31^] The RPMI 1640 medium and components were dissolved in water (Milli-Q purified), stirred for at least 3 h, and then sterile filtered (0.22 μm pore size) with a bottle top filter (Corning # 431118). Parasite cultures were maintained in an atmosphere of 3% O2, 4% CO2, and 93% N2 in air-tight chambers at 37 °C. The [^3H]-hypoxanthine incorporation assay was used to test compound activity in the specific parasite lines as described.^[32^] Briefly, compounds were dissolved in DMSO (10 mM) and diluted in a hypoxanthine-free culture medium. A limiting dilution was performed over a 64-fold range (6-step twofold dilution) in a 96-well plate in duplicates. For every starting concentration, a limiting dilution was performed over a 64-fold range (6-step twofold dilution) in a 96-well plate in two biological duplicates. Parasites were added at 100 µL to each well containing the compound to obtain a final parasitemia of 0.3% and haematocrit of 1.25%. The plates were incubated for 48 h before 0.25 µCi of [^3H]-hypoxanthine was added per well for an additional 24 h. Parasites were harvested on a glass-fiber filter with a Microbeta FilterMate cell harvester (Perkin Elmer, Waltham, USA) and radioactivity was counted using a MicroBeta2 liquid scintillation counter (Perkin Elmer, Waltham, US). The results were recorded, processed by subtraction of the mean background signal obtained from the uninfected RBC controls and expressed as percentage of untreated controls. The fifty percent inhibitory concentration (IC50) was calculated by using nonlinear, four parameter (variable slope) curve fitting as described ^[33^] after importing into GraphPad Prism (version 8.3.0).
The P. falciparum 3D7 wild type parasites in the ring stage were transfected as described.^[20] Infected RBCs collected from a 5 ml culture of synchronous ring stage parasites (5-6% parasitemia at ) were added to 250 µl of packed RBCs and were co-transfected with 50µg of Cas9 and 50 µg of donor plasmids using a Bio-Rad Gene Pulser Xcell Electroporation System (single exponential pulse, 310 V, 250 µF). 24 hours post-transfection, 5 nM WR99210 (MedChemExpress #HY-116387) was added to the culture medium for six days to select for gene-edited parasites, and henceforth parasites were maintained in normal culture medium until a stably propagating parasite population was obtained. After ~4 weeks post-transfection, stably propagating parasite population were obtained. The transgenic parasite line (3D7^pfmdr1 G182S) was cloned out using an established plaque assays via limiting dilution.^[35^] […]

The test system of series [1] is laboratory-selected Dd2 strains. In words: [3H]-hypoxanthine incorporation assay. The following applies: Plasmodium falciparum, DD2, read-out: IC50 against the laboratory-selected Dd2 strains. It counts as cell-based. The method, then: To determine potential cross resistance against compound 31 in parasites harboring mutations that confer resistance to current antimalarials, its activity was assessed against drug‐resistant field isolates as previously described. […] A cross‐resistance was considered when there was more than a 10‐fold shift in the IC50 relative to the NF54 strain. […] Because of this, 31 was tested against laboratory‐selected Dd2 strains, which contained additional resistance variants to preclinical and clinical drug candidates.
P. falciparum asexual blood stage parasites were cultured in human red blood cells (RBC, Blutspende SRK, Zurich) at a hematocrit of 5% in RPMI 1640 medium. […] Parasites were harvested on a glass-fiber filter with a Microbeta FilterMate cell harvester (Perkin Elmer, Waltham, USA) and radioactivity was counted using a MicroBeta2 liquid scintillation counter (Perkin Elmer, Waltham, US). The results were recorded, processed by subtraction of the mean background signal obtained from the uninfected RBC controls and expressed as percentage of untreated controls. The fifty percent inhibitory concentration (IC50) was calculated by using nonlinear, four parameter (variable slope) curve fitting as described ^[33^] after importing into GraphPad Prism (version 8.3.0).

Series [2] has as its system Dd2 ELQ300 (Dd2 + pfcytb). The series is described as follows: [3H]-hypoxanthine incorporation assay. It counts as cell-based, Plasmodium falciparum. The method, then: (§3) ^[a]72-h [^3H] hypoxanthhine incorporation assay. Data is expressed as mean±s.d..
as §2

The test system of series [3] is Dd2 MMV390048 (Dd2 + pfpI4k). The series is described as follows: [3H]-hypoxanthine incorporation assay. In kind it is cell-based, Plasmodium falciparum. The method, then:
as §3, §2

Where [4] appears, read: Plasmodium falciparum, DD2, 72 h.

Structures are written as SMILES. “And” between values parts separate entries of the source, which are not always exact repeats. Equal values may be shown once.

A word on the inhibition: it is the change of the read-out against control, counted positive when it falls. In general, CC50 refers to the concentration that lowers cell viability or growth by half. A higher CC50 goes with lower toxicity to the cells. The term IC50 denotes the concentration that inhibits the measured activity by half. As to `CN1CCN(Cc2ccc(O)c(NC(=O)c3cccc(Oc4cc(C(F)(F)F)ccn4)c3)c2)CC1` [Compound 31, N-(2-hydroxy-5-((4-methylpiperazin-1-yl)methyl)phenyl)-3-((4-(trifluoromethyl)pyridin-2-yl)oxy)benzamide], in the series on HepG2 (HepG2 CC50 / P. falciparum IC50), the “selectivity index (CC50/IC50)” value is given as 9,487. This compound came in with an inhibition at 100 µM in the series on HepG2 (Homo sapiens, HepG2, 100 µM, 48 h, MTT) of 87 ± 5%. Also, the CC50 at 48 h in “Cytotoxicity assay (MTT)” is 37000 nM. Besides, the “IC50 fold shift relative to 3D7^WT strain” value in the series on 3D7^Cas9 pfmdr1 G182S was 7 and 6.6. Also, the IC50 in series [1] was 2.4 to 6.6 nM; in series [2] (setting [4]) it was 4.4 ± 0.1 nM; in series [3] (setting [4]), 4.8 ± 1.5 nM. Also, the “IC50 fold shift relative to Dd2 strain” value in series [2] (Dd2 ELQ300) and in series [3] (Dd2 MMV390048) was 0.5 throughout.
